The record followed here is patent US9034884B2, “Heterocyclic-substituted pyrrolopyridines and pyrrolopyrimidines as JAK inhibitors” (Incyte Corporation, priority 2010, dated 2015).

The target of experiment [1] is T1, human JAK1 (a.a. 837-1142) catalytic domain (Homo sapiens, UniProt P23458).
T1 construct: human JAK1 (a.a. 837-1142); His tag (N); made in house; host or cells: insect cells (baculovirus)
Briefly: In vitro JAK kinase assay (HTRF, phosphorylation of biotinylated peptide), JAK1. In kind it is biochemical. Particulars: Table A; ATP 1 mM. As for the experimental part:
Compounds herein were tested for inhibitory activity of JAK targets according to the following in vitro assay described in Park et al., Analytical Biochemistry 1999, 269, 94-104. The catalytic domains of human JAK1 (a.a. 837-1142) and JAK2 (a.a. 828-1132) with an N-terminal His tag were expressed using baculovirus in insect cells and purified. The catalytic activity of JAK1 and JAK2 was assayed by measuring the phosphorylation of a biotinylated peptide. The phosphorylated peptide was detected by homogenous time resolved fluorescence (HTRF). […] For the 1 mM IC50 measurements, ATP concentration in the reactions was 1 mM. Reactions were carried out at room temperature for 1 hour and then stopped with 20 μL 45 mM EDTA, 300 nM SA-APC, 6 nM Eu-Py20 in assay buffer (Perkin Elmer, Boston, Mass.). Binding to the Europium labeled antibody took place for 40 minutes and HTRF signal was measured on a Fusion plate reader (Perkin Elmer, Boston, Mass.). […] Data is indicated as ranges, wherein “+” is less than 5 nM; “++” is 5 nM to 25 nM; “+++” is greater than 25 nM to 100 nM; and “++++” is greater than 100 nM.

For experiment [2], the target named is T2, JAK2 (a.a. 828-1132) catalytic domain (Homo sapiens, UniProt O60674).
T2 construct: JAK2 (a.a. 828-1132); His tag (N); made in house; host or cells: insect cells (baculovirus)
Briefly: In vitro JAK kinase assay (HTRF, phosphorylation of biotinylated peptide), JAK2. In kind it is biochemical. As to conditions: Table A; ATP 1 mM. As for the experimental part: Compounds herein were tested for inhibitory activity of JAK targets according to the following in vitro assay described in Park et al., Analytical Biochemistry 1999, 269, 94-104. The catalytic domains of human JAK1 (a.a. 837-1142) and JAK2 (a.a. 828-1132) with an N-terminal His tag were expressed using baculovirus in insect cells and purified. The catalytic activity of JAK1 and JAK2 was assayed by measuring the phosphorylation of a biotinylated peptide. The phosphorylated peptide was detected by homogenous time resolved fluorescence (HTRF). […] For the 1 mM IC50 measurements, ATP concentration in the reactions was 1 mM. Reactions were carried out at room temperature for 1 hour and then stopped with 20 μL 45 mM EDTA, 300 nM SA-APC, 6 nM Eu-Py20 in assay buffer (Perkin Elmer, Boston, Mass.). Binding to the Europium labeled antibody took place for 40 minutes and HTRF signal was measured on a Fusion plate reader (Perkin Elmer, Boston, Mass.). See Tables A and B for data related to compounds of the invention (at 1 mM). Data is indicated as ranges, wherein “+” is less than 5 nM; “++” is 5 nM to 25 nM; “+++” is greater than 25 nM to 100 nM; and “++++” is greater than 100 nM.
In general terms: Time-resolved FRET reads energy transfer from a long-lived donor to a nearby acceptor.

pIC50: −log10 of the molar value.

T2 sequence (O60674 828-1132): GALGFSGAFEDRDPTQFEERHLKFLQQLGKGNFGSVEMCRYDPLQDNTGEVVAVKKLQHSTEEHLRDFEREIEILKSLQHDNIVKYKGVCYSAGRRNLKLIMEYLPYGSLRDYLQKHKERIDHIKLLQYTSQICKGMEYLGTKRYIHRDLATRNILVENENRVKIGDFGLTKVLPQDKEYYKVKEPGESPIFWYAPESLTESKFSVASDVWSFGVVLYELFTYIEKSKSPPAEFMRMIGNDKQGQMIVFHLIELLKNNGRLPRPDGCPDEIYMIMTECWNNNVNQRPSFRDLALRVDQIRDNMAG
T1 sequence (P23458 849-1154): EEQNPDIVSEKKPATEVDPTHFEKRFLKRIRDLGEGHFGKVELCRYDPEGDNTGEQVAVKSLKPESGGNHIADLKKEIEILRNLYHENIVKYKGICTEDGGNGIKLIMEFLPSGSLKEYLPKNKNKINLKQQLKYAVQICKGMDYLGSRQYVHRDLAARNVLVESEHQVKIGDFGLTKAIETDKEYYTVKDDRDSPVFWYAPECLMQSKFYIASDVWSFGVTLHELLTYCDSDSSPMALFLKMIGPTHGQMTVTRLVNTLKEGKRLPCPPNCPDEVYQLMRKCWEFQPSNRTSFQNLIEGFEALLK

For `C[C@@H]1CCCN1Cc1cc(F)cc(OC2CCN(CC(CC#N)n3cc(-c4ncnc5[nH]ccc45)cn3)CC2)c1` (stereo partly drawn) [Example 28, 4-[4-(3-fluoro-5-{[(2R)-2-methylpyrrolidin-1-yl]methyl}phenoxy)piperidin-1-yl]-3-[4-(7H-pyrrolo[2,3-d]pyrimidin-4-yl)-1H-pyrazol-1-yl]butanenitrile], the results for the pIC50 in experiment [1] and in experiment [2] were over 8.30 and 7.00 to 7.60, respectively.

Consider `C[C@H]1CCCN1Cc1cc(F)cc(OC2CCN(CC(CC#N)n3cc(-c4ncnc5[nH]ccc45)cn3)CC2)c1` (stereo partly drawn) [Example 29, 4-[4-(3-fluoro-5-{[(2S)-2-methylpyrrolidin-1-yl]methyl}phenoxy)piperidin-1-yl]-3-[4-(7H-pyrrolo[2,3-d]pyrimidin-4-yl)-1H-pyrazol-1-yl]butanenitrile], for which the pIC50 – broadly, the negative decadic logarithm of the IC50, by convention in mol/L – in experiment [1] is over 8.30; in experiment [2], 7.00 to 7.60.

Regarding `COCCNCc1cc(F)cc(OC2CCN(CC(CC#N)n3cc(-c4ncnc5[nH]ccc45)cn3)CC2)c1` (stereo not drawn) [Example 30, 4-[4-(3-fluoro-5-{[(2-methoxyethyl)amino]methyl}phenoxy)piperidin-1-yl]-3-[4-(7H-pyrrolo[2,3-d]pyrimidin-4-yl)-1H-pyrazol-1-yl]butanenitrile], the results for the pIC50 in experiment [1] and in experiment [2] were 7.60 to 8.30 and 7.00 to 7.60, respectively.
